The text below walks through data of US20180028480A1, “METHODS OF REDUCING OR PREVENTING OXIDATIVE MODIFICATION OF MEMBRANE POLYUNSATURATED FATTY ACIDS” (Amarin Pharmaceuticals Ireland Limited, priority 2015, published 2018).

The assay is described as follows: X-ray diffraction of glucose-treated DLPC/cholesterol membranes under oxidative conditions (Example 8). As to conditions: 10.0 μM; 0.6 C/P; glucose-induced lipid peroxidation 72 hours (FIG. 14). As for the experimental part: Values are reported as mean±S.D. (N=3).
[…] Membranes were reconstituted from DLPC and cholesterol at a C/P mole ratio of 0.6:1 and treated with the various agents to achieve a total drug-to-phospholipid mole ratio of 1:30.
Multilamellar vesicles (MLVs) were prepared as binary mixtures of POPC and cholesterol at 50 mol %. MLVs with DLPC and cholesterol at cholesterol-to-phospholipid (C/P) mole ratios of 0.1:1 to 1.1:1 were also prepared in a similar manner. Component lipids (in chloroform) were transferred to borosilicate culture tubes and combined with vehicle (ethanol) or an equal volume of EPA, DHA, fenofibrate, niacin or gemfibrozil stock solution(s) and adjusted to achieve a drug-to-phospholipid (D/P) mole ratio of 1:30. Membranes reconstituted from POPC and cholesterol (at 50 mol % cholesterol) were treated with each of the various agents at 5 mol %. Samples were then shell-dried under nitrogen gas and placed under vacuum for 3 hours to remove residual solvent.
After drying, each sample was resuspended in glucose-free or glucose-containing saline buffer to yield a final phospholipid concentration of 2.5 mg/mL. Lipid suspensions were then vortexed for 3 minutes at ambient temperature to form MLVs.
Membrane samples were oriented for x-ray diffraction analysis as described in Mason, et al., J. Biol. Chem., vol. 281, pages 9337-45 (2006). Briefly, 100 μL aliquots of each MLV preparation (containing 250 μg of phospholipid) were transferred to Lucite sedimentation cells fitted with a removable aluminum foil substrate designed to collect MLVs into a single membrane pellet upon centrifugation. Samples were then loaded into a Sorvall AH-629 swinging bucket ultracentrifuge rotor (DuPont Corp., Wilmington, Del.) and centrifuged at 35,000 g, 5° C., for 1.5 hours.
Following membrane orientation, sample supernatants were aspirated and aluminum foil substrates mounted onto curved glass slides. The membrane samples were then placed in hermetically sealed containers in which temperature and relative humidity were controlled during x-ray diffraction analysis. Data reported in this study were collected at 20° C. and 74% relative humidity.
This technique allows for precise measurement of the unit cell periodicity, or d-space, of the membrane lipid bilayer, which is the distance from the center of one lipid bilayer to the next, including surface hydration.
The presence of cholesterol domains in a given membrane sample results in the production of distinct Bragg (diffraction) peaks that have singular periodicity values of 34 Å and 17 Å. These peaks are typically referred to as first- and second-order cholesterol domain peaks.

`CC/C=C\C/C=C\C/C=C\C/C=C\C/C=C\CCCC(=O)O` [EPA, cis-5,8,11,14,17-Eicosapentaenoic acid]: the “effect on d-space values” was “significantly inhibited glucose-induced reductions and peroxidation-induced reductions in d-space values”.
